From paper PMC10218498, “Exploring BenzylethoxyAryl Urea Scaffolds for Multitarget Immunomodulation Therapies” (International Journal of Molecular Sciences, 2023)

Assays:
[1] = test system: HEK-293 (human embryonic kidney cells); experiment: MTT cell proliferation assay, HEK-293; type: cell-based; conditions: HEK293, 48 h of treatment
Description: (§1) This assay allowed us to establish the corresponding IC50 values (expressed as the concentration, in μM, at which 50% of cell viability is achieved), shown in Table 1.
(§2) In 96-well plates, 5 × 10^3 (HT-29, MCF-7, A549, HMEC-1, Jurkat, and HEK-293) cells per well were incubated with serial dilutions of the tested compounds in a total volume of 100 μL of their respective growth media. The 3-(4,5-dimethylthiazol-2-yl)-2,5-diphenyltetrazolium bromide (MTT; Sigma Chemical Co.) dye reduction assay in 96-well microplates was used. After 2 days of incubation (37 °C, 5% CO2 in a humid atmosphere), 10 μL of MTT (5 mg/mL in phosphate-buffered saline, PBS) was added to each well, and the plate was incubated for a further 3 h (37 °C). After that, the supernatant was discarded and replaced by 100 µL of DMSO to dissolve formazan crystals. The absorbance was then read at 550 nm by spectrophotometry. For all concentrations of compound, cell viability was expressed as the percentage of the ratio between the mean absorbance of treated cells and the mean absorbance of untreated cells. Three independent experiments were performed, and the IC50 values (i.e., concentration half inhibiting cell proliferation) were graphically determined using GraphPad Prism 4 software.

Jurkat T cells = experiment: MTT cell proliferation assay, Jurkat T cells; type: cell-based; conditions: Homo sapiens, 48 h of treatment
Description: as §1, §2

VEGFR-2 [2] = target: T1, VEGFR-2 (Homo sapiens, UniProt P35968); experiment: VEGFR-2 relative quantification by flow cytometry in HT-29; type: cell-based; set-up: Both membrane and total PD-L1 and VEGFR-2 were relatively determined using DMSO-treated cells as a negative control; endogenous in cells; host or cells: HT-29; conditions: 24 h; for Total VEGFR-2 (%): relative to DMSO control = 100; for inhibition at 20 µM: HT-29, HT-29, 20 µM, read-out: inhibition rate of VEGFR-2
T1 sequence (P35968 20-1356): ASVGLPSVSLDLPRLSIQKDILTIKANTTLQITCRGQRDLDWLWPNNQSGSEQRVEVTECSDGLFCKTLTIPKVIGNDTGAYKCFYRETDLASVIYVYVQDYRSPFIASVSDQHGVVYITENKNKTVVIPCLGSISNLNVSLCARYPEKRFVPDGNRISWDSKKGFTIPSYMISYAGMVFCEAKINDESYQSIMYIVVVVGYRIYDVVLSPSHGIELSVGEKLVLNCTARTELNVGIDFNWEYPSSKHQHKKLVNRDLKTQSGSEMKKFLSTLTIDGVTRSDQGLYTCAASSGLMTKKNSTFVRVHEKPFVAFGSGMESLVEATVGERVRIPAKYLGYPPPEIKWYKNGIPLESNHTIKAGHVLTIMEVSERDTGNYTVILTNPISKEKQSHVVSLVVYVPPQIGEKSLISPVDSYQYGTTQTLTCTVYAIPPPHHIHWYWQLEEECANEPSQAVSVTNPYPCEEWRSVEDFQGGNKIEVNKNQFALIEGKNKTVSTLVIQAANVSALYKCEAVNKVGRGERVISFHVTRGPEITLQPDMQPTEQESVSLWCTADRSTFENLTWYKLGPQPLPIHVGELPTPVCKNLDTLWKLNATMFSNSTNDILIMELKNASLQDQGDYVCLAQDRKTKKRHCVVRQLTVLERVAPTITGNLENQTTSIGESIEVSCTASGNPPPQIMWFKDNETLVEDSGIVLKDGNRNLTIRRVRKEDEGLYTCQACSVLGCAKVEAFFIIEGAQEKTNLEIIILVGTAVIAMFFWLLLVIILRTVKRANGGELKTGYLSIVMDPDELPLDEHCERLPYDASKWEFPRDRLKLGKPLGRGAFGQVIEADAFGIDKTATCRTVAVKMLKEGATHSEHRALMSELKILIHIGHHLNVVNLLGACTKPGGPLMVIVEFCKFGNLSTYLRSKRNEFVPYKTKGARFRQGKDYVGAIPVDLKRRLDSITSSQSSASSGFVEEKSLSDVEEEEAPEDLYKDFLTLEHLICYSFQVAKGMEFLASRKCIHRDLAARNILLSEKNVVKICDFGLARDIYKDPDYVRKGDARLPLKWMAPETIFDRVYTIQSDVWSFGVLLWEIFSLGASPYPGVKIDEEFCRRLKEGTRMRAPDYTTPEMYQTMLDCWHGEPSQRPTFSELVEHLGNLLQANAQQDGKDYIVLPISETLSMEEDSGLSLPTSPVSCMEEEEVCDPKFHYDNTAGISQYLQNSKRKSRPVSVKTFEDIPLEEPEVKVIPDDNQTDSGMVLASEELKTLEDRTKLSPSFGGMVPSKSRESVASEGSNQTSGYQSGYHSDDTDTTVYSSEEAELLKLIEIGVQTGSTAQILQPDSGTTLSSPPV
Description: (§3) For these assays, cells were incubated for 24 h in the presence of the corresponding compounds at 20 µM concentration.
(§4) To study the effect of the compounds on every biological target in cancer cell lines, the compounds were used at 20 µM dose.
(§5) For the assay, 10^5 cells per well were incubated for 24 h with the corresponding dose of the tested compound in a total volume of 500 μL of their growth media.
(§6) On the one hand, to detect total PD-L1 and VEGFR-2, after the cell treatments, they were collected and fixed with 4% in PBS paraformaldehyde.
(§7) On the other hand, to detect membrane PD-L1 and VEGFR-2, the process was the same, avoiding the treatment with 0.5% in PBS TritonTM X-100 step.

VEGFR-2 [3] = target: T1, VEGFR-2; experiment: VEGFR-2 relative quantification by flow cytometry in A-549; type: cell-based; set-up: Both membrane and total PD-L1 and VEGFR-2 were relatively determined using DMSO-treated cells as a negative control; endogenous in cells; host or cells: A-549; conditions: A-549, 20 µM, 24 h, relative to DMSO control = 100
Description: as §3, §4, §5, §6, §7

VEGFR-2 [4] = target: T1, VEGFR-2; experiment: VEGFR-2 relative quantification by flow cytometry in MCF-7; type: cell-based; set-up: Both membrane and total PD-L1 and VEGFR-2 were relatively determined using DMSO-treated cells as a negative control; endogenous in cells; host or cells: MCF-7; conditions: MCF-7, 20 µM, 24 h, control = 100
Description: Then, we determined the effect of the selected compounds on the biological targets, PD-L1 and VEGFR-2, by flow cytometry. […] As usually, the assay was performed at a concentration of 20 µM for 24 h.
as §4, §5, §6, §7

[5] = test system: human microvessel endothelial cells (HMEC-1); experiment: MTT cell proliferation assay, HMEC-1; type: cell-based; conditions: 48 h of treatment
Description: as §1, §2

Fyn = experiment: Immunoblotting of OT-1 CTL signaling proteins: FYN; type: cell-based, mice; conditions: OT-1, 20 μM, 24 h
From the text: (§8) We next studied the effect of our compounds on the signaling cascade downstream of the TCR. […] However, both the expression and phosphorylation of LCK were increased in response to all compounds. The effects on ZAP70 and LAT were more complex, with opposing effects on total protein expression versus phosphorylation. Thus, all compounds modulated signaling downstream of the TCR in a manner that is likely to impact T-cell activation and activity.
(§9) CD8+ cells were obtained from the inguinal, axillary, brachial, and mesenteric lymph nodes previously collected from OT-1 mice. Lymph node cells were isolated by mashing through a […] cell strainer. Cells were resuspended in IMDM cell media at a concentration of 0.3 million cells/mL. N4 ovalbumin peptide was added at a concentration of 10 nM, and cells were incubated for 48 h at 5% CO2, 37 °C. On day 2 from recollection, cells were pelleted at 1300 rpm for 5 min and washed with PBS to remove N4 peptide. The cell pellet was resuspended in fresh IMDM media in a new flask in a 0.3 million cells/mL and supplemented with IL-2 at 20 ng/mL. After incubation for a further 48 h (day 4), cells were re-seeded in fresh IMDM media at a concentration of 0.3 million cells/mL supplemented with IL-2 at 20 ng/mL. Cells were cultured for a further 48 h prior to use on day 6 in functional assays.
(§10) To study the effect of the compounds in the signaling pathway of CTLs, the compound was incubated for 24 h at 20 μM. After this time, cells were collected and washed twice in PBS and lysed in radioimmunoprecipitation assay (RIPA) lysis buffer (50 mM tris-HCl at pH 7.4, 150 mM sodium chloride, 5 mM EGTA, 0.1% SDS, 1% NP-40, and 1% deoxycholate) supplemented with a protease and phosphatase inhibitor cocktail (mini complete ULTRA Protease tablet and phosSTOP tablet from Roche, Basel, Switzerland). Lysates were clarified by high-speed centrifugation (17,000 rpm for 15 min at 4 °C). Protein concentration was measured using a Micro BCA Protein Assay (Thermo Scientific, Waltham, MA, USA), and 10 μg to 30 μg of total protein were supplemented with 2X SDS sample buffer [tris (pH 6.8), 20% glycerol, 5% SDS, b-mercaptoethanol, and bromophenol blue) and boiled at 95 °C for 5 min. […] Bound Ab was detected by incubation with anti-rabbit and anti-mouse horseradish peroxidase secondary Ab (Cell Signaling Technology) and visualized using the Bio-Rad ChemiDoc MP Imaging System.

LAT = experiment: Immunoblotting of OT-1 CTL signaling proteins: LAT; type: cell-based, mice; conditions: OT-1, 20 μM, 24 h
From the text: as §8, §9, §10

SMILES	IC50 [1] [µM]	IC50 (Jurkat T cells) [µM]	Total VEGFR-2 (%) (VEGFR-2 [2]; HT-29, 20 µM)	Total VEGFR-2 (%) (VEGFR-2 [3])	% VEGFR-2 Memb. (VEGFR-2 [4]) [%]	% VEGFR-2 Total (VEGFR-2 [4]) [%]	IC50 [5] [µM]	FYN protein expression (Western blot quantification) (Fyn)	LAT protein expression (Western blot quantification) (LAT)	inhibition at 20 µM (VEGFR-2 [2]) [%]	pLAT protein expression (Western blot quantification) (LAT)	inhibition rate of VEGFR-2 (VEGFR-2 [2]; HT-29, 20 µM)
Cc1c(COc2ccc(CN3CCCCC3C(=O)O)cc2Br)cccc1-c1ccccc1 (stereo not drawn) [BMS-8, reference compound]	60 ± 10	> 100	86 ± 21	122 ± 13	107 ± 4	93						
COc1ccc(COc2cccc(NC(=O)Nc3ccc(F)cc3)c2)cc1 [Compound 2]	> 100	> 100	62 ± 15	97 ± 12	91 ± 12	72 ± 10	> 100	101	63	~50		
COc1ccc(COc2cccc(NC(=O)Nc3ccc(Br)cc3)c2)cc1 [Compound 8]	> 100	> 100	46 ± 18	141 ± 13	82 ± 6	88 ± 11	> 100		88	~60	8	
COc1ccc(COc2cccc(NC(=O)Nc3ccc(OC)cc3)c2)cc1 [Compound 11]	> 100	> 100	168 ± 12	143 ±10	81 ± 11	83 ± 21	> 100	109	85		10	no inhibitory effect
COc1ccc(COc2cccc(NC(=O)Oc3ccccc3)c2)cc1 [Compound 14]	> 100	> 100	43 ± 12	107 ± 18	89 ± 11	110 ± 12	> 100	102	103	~60	21	
